For 8 molecules, IC50 results are on record in patent publication US5610154A, “Bicyclic carboxamides” (John Wyeth & Brother, Ltd., priority 1994, dated 1997).

The target in the test is T1, 5-HT1A receptor (Rattus norvegicus, UniProt P19327).
T1 construct: rat hippocampal membrane homogenate; from tissue; host or cells: rat hippocampus, membrane homogenate
T1 sequence (P19327 1-422): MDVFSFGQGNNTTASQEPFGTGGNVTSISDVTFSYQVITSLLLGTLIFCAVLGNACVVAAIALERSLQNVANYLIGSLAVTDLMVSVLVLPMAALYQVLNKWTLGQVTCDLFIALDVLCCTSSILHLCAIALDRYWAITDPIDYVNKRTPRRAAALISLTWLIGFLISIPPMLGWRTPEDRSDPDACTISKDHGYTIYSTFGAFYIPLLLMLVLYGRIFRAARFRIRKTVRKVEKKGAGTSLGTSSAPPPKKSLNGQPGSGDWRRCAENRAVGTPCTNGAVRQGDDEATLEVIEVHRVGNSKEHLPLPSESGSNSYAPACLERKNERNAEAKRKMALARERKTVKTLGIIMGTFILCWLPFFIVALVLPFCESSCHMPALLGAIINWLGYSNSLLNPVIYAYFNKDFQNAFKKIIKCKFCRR
The test can be described thus: 5-HT1A receptor binding activity in rat hippocampal membrane homogenate (method of B. S. Alexander and M. D. Wood). Here is the method:
The compounds of the invention are tested for 5-HT1A receptor binding activity in rat hippocampal membrane homogenate by the method of B. S. Alexander and M. D. Wood, J. Pharm. Pharmacol., 1988, 40, 888-891.

Molecules are shown by their SMILES.

`COc1ccccc1N1CCN(CCC(C(=O)N2C3CCCC2CC3)c2ccccc2)CC1` (centres unmarked) [Example 1, 1-(8-Aza-bicyclo[3.2.1]oct-8-yl)-4-[4-(2-methoxy-phenyl)-piperazin-1-yl]-2-phenyl-butan-1-one] registered an IC50 of 3.3 nM.

With `COc1ccc(F)cc1N1CCN(CCC(C(=O)N2C3CCCC2CC3)c2ccccc2)CC1` (centres unmarked) [Example 2, 1-(8-Aza-bicyclo[3.2.1]oct-8-yl)-4-[4-(5-fluoro-2-methoxy-phenyl)-piperazin-1-yl]-2-phenyl-butan-1-one], the IC50 is 1.48 nM.

The molecule `O=C(C(CCN1CCN(c2cccc3[nH]ccc23)CC1)c1ccccc1)N1C2CCCC1CC2` (centres unmarked) [Example 5, 1-(8-Aza-bicyclo[3.2.1]oct-8-yl)-4-[4-(1H-indol-4-yl)-piperazin-1-yl]-2-phenyl-butan-1-one] showed an IC50 of 3.73 nM.

`O=C(C(CCN1CCN(c2ccccn2)CC1)c1ccccc1)N1C2CCCC1CC2` (centres unmarked) [Example 8, 1-(8-Aza-bicyclo[3.2.1]oct-8-yl)-2-phenyl-4-[4-(pyridin-2-yl)-piperazin-1-yl]-butan-1-one] came in with an IC50 of 3.5 nM.

`O=C(C(CCN1CCN(c2ncccc2C(F)(F)F)CC1)c1ccccc1)N1C2CCCC1CC2` (centres unmarked) [Example 10] gave an IC50 of 17.9 nM.

`O=C(C(CCN1CCN(c2cccc3[nH]ccc23)CC1)c1ccccc1)N1CC2CCC(CC2)C1` (centres unmarked) [Example 14, 1-(3-Aza-bicyclo[3.2.2]non-3-yl)-4-[4-(1H-indol-4-yl)-piperazin-1-yl]-2-phenylbutan-1-one]: the IC50 stood at 1.96 nM.

In turn, `COc1ccccc1N1CCN(CCC(C(=O)N2CC3CCC(CC3)C2)c2ccccc2)CC1` (centres unmarked) [Example 15] gave an IC50 of 0.58 nM.

`COc1ccccc1N1CCN(CCC(C(=O)N2CC3CC=CCC3C2)c2ccccc2)CC1` (centres unmarked) [Example 16, 1-(1,3,3a,4,7,7a-Hexahydroisoindol-2-yl)-4-[4-(2-methoxyphenyl)piperazin-1-yl]-2-phenylbutan-1-one] came in with an IC50 of 4.46 nM. This IC50 lies about 7.7-fold higher than the previous one.

The IC50 is the concentration that gives 50% inhibition. The low end stands for higher potency, the high end for lower potency.
